Here are results for 2 molecules from patent US12642799B2, “Composition and method for treating COVID-19” (University of South Florida, priority 2021, dated 2026).

Read-outs that look alike come from different tables or passages of the source.

The test system of test [1] is SARS CoV-2 infected Caco2 cells. The test is classed as cell-based.
A further test concerns IL-6, IL-1β, and TNFα. In kind it is cell-based.
Test [2] deals with GFP-CoV-2 infected mature adipocytes. In kind it is cell-based, SARS CoV-2. The note with it: for reduction in infection by cytoimmunochemical staining (SARS CoV-2/ACE2): mature adipocytes, FIG. 3C.
A further test deals with CoV-2 infection. The test is classed as in vivo, human. The note with it: obese Type 2 diabetic patient, oral, retested twice over several weeks.
In test [3] the test system is serum inflammatory markers and anti-inflammatory cytokines. The note with it: Type 2 diabetic patients; cited from earlier work.

Consider `CN(C)C(=N)N=C(N)N` [metformin], for which, in test [1], the “expression of SARS CoV-2 N protein (fold change)” value is “decreasing expression” and the “expression of SARS CoV-2 S protein (fold change)” value is listed as “decreasing expression”. In the test on IL-6, IL-1β, and TNFα, the “expression of IL-1β (fold change)” value is “decreasing expression”, the “expression of IL-6 (fold change)” value is “decreasing expression” and the “expression of TNFα (fold change)” value is recorded as “decreasing expression”. Moreover, in test [2], the “inhibition of viral infection (integrated density of GFP expression)” value is “inhibited viral infection” and the “reduction in infection by cytoimmunochemical staining (SARS CoV-2/ACE2)” value is on record as “reduction in infection”.

For the molecule `N[C@@H](CC(=O)N1CCn2c(nnc2C(F)(F)F)C1)Cc1cc(F)c(F)cc1F` [sitagliptin], in test [1], the “expression of SARS CoV-2 N protein (fold change)” value is given as “larger decrease than metformin” and the “expression of SARS CoV-2 S protein (fold change)” value was “larger decrease than metformin”. For the same molecule, in the test on IL-6, IL-1β, and TNFα, the “expression of IL-1β (fold change)” value is reported as “decreasing expression”, the “expression of IL-6 (fold change)” value is on record as “decreasing expression” and the “expression of TNFα (fold change)” value was “decreasing expression”. Besides, the “inhibition of viral infection (integrated density of GFP expression)” value in test [2] ([…], metformin 10 mM, sitagliptin 20 uM) is “highest reduction”. Also, in test [2], the “reduction in infection by cytoimmunochemical staining (SARS CoV-2/ACE2)” value was “highest reduction”. In addition, in the test with CoV-2 infection, the “virus test after treatment” value is given as “tests negative for the virus”. Besides, in test [3], the anti-inflammatory cytokines entry is given as “increased” and the “serum levels of inflammatory markers” value was “significantly decreased”.
